Assays:
Assay in all cases: Dundee kinase panel
Assay type in all cases: biochemical
Settings in all cases: for remaining activity at 1 µM: read-out: residual activity
CLK2 = molecular target: T1, CLK2 (Homo sapiens, UniProt P49760)
T1 construct: lines 1-140) and Reaction Biology
Procedure: (§1) Compounds were screened at 1 μM. For key hits, pIC50 values were then determined by HTRF as above. […] Stability in mouse and human liver microsomes was determined by Cyprotex.

p38a MAPK = molecular target: T2, p38a MAPK (Homo sapiens, UniProt Q16539)
T2 construct: lines 1-140) and Reaction Biology
Procedure: as §1

FGF-R1 = molecular target: T3, FGF-R1 (Homo sapiens, UniProt P11362)
T3 construct: lines 1-140) and Reaction Biology
Procedure: as §1

MAPKAP-K3 = molecular target: T4, MAPKAP-K3 (Homo sapiens, UniProt Q16644)
T4 construct: lines 1-140) and Reaction Biology
Procedure: as §1

MNK2 = molecular target: T5, MNK2 (Homo sapiens, UniProt Q9HBH9)
T5 construct: lines 1-140) and Reaction Biology
Procedure: as §1

JNK3 = molecular target: T6, JNK3 (Homo sapiens, UniProt P53779)
T6 construct: lines 1-140) and Reaction Biology
Procedure: as §1

ERK2 = molecular target: T7, ERK2 (Homo sapiens, UniProt P28482)
T7 construct: lines 1-140) and Reaction Biology
Procedure: as §1

DAPK1 = molecular target: T8, DAPK1 (Homo sapiens, UniProt P53355)
T8 construct: lines 1-140) and Reaction Biology
Procedure: as §1

Aurora B = molecular target: T9, Aurora B (Homo sapiens, UniProt Q96GD4)
T9 construct: lines 1-140) and Reaction Biology
Procedure: as §1

PLK1 = molecular target: T10, PLK1 (Homo sapiens, UniProt P53350)
T10 construct: lines 1-140) and Reaction Biology
Procedure: as §1

OSR1 = molecular target: T11, OSR1 (Homo sapiens, UniProt O95747)
T11 construct: lines 1-140) and Reaction Biology
Procedure: as §1

PRK2 = molecular target: T12, PRK2 (Homo sapiens, UniProt Q16513)
T12 construct: lines 1-140) and Reaction Biology
Procedure: as §1

DDR2 = molecular target: T13, DDR2 (Homo sapiens, UniProt Q16832)
T13 construct: lines 1-140) and Reaction Biology
T13 sequence (Q16832 22-855): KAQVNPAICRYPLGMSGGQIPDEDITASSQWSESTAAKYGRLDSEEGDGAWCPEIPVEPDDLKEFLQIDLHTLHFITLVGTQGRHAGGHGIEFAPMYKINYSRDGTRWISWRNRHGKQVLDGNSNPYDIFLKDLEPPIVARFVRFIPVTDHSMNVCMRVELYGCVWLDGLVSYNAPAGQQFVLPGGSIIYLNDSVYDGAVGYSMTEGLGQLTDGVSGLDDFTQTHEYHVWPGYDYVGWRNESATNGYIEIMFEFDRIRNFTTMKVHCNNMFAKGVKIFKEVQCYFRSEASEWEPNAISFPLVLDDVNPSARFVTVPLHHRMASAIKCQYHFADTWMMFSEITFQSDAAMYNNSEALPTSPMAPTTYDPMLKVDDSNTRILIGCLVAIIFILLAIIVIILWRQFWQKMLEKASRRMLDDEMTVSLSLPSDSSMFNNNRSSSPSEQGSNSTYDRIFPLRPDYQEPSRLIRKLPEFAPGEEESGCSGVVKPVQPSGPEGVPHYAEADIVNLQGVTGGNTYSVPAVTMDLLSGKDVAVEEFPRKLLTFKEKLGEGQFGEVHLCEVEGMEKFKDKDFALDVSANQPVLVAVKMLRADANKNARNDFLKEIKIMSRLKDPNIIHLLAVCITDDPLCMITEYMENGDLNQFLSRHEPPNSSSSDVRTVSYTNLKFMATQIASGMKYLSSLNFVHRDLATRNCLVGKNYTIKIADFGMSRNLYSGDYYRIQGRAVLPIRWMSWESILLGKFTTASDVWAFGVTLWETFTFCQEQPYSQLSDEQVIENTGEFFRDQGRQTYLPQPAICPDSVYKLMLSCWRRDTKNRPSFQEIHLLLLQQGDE
Procedure: as §1

IRAK4 = molecular target: T14, IRAK4 (Homo sapiens, UniProt Q9NWZ3)
T14 construct: lines 1-140) and Reaction Biology
T14 sequence (Q9NWZ3 1-460): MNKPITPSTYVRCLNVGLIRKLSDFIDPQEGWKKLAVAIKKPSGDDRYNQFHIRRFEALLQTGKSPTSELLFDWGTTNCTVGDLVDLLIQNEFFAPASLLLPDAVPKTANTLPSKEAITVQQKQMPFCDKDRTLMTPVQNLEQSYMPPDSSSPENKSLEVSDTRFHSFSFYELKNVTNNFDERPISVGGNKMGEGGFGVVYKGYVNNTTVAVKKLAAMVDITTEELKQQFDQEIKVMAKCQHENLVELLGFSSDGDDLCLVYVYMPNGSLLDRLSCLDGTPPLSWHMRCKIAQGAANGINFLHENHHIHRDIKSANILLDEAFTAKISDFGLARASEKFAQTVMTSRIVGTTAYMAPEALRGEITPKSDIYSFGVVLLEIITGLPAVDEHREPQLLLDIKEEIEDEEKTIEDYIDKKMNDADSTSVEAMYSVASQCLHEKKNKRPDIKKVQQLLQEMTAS
Procedure: as §1

RSK1 = molecular target: T15, RSK1 (Homo sapiens, UniProt Q15418)
T15 construct: lines 1-140) and Reaction Biology
Procedure: as §1

TLK1 = molecular target: T16, TLK1 (Homo sapiens, UniProt Q9UKI8)
T16 construct: lines 1-140) and Reaction Biology
T16 sequence (Q9UKI8 1-766): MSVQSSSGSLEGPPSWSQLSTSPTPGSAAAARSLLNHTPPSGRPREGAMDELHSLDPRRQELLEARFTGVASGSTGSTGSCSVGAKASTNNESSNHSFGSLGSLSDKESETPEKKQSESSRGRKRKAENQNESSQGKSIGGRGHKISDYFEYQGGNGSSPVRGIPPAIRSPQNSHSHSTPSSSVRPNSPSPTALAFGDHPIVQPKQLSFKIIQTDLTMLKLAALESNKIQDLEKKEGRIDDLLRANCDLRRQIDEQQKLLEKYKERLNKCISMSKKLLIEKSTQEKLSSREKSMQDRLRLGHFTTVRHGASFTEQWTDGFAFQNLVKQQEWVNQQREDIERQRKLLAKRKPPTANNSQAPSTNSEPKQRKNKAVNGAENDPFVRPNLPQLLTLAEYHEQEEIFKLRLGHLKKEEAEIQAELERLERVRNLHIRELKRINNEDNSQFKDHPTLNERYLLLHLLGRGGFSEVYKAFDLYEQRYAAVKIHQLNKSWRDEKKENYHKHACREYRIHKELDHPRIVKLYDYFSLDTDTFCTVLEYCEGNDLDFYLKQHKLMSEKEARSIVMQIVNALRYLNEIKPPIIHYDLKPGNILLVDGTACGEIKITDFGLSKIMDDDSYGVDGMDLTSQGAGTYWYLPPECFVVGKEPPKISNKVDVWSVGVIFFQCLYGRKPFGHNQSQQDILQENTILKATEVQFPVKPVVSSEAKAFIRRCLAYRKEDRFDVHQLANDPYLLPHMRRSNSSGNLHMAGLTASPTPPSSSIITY
Procedure: as §1

T1 sequence (P49760 whole entry): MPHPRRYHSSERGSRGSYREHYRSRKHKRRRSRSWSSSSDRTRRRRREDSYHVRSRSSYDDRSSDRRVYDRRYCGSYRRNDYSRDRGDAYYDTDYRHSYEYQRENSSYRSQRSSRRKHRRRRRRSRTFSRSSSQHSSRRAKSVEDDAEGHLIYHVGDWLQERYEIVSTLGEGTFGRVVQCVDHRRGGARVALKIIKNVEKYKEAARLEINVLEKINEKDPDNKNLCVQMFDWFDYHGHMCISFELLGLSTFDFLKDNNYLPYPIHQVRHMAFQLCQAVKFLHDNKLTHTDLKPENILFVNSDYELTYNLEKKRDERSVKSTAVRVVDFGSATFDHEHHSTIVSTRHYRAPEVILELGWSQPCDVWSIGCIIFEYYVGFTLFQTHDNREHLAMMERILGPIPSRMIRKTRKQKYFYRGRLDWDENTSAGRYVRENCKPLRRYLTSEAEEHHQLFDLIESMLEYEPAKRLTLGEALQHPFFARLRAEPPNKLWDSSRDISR
T2 sequence (Q16539 whole entry): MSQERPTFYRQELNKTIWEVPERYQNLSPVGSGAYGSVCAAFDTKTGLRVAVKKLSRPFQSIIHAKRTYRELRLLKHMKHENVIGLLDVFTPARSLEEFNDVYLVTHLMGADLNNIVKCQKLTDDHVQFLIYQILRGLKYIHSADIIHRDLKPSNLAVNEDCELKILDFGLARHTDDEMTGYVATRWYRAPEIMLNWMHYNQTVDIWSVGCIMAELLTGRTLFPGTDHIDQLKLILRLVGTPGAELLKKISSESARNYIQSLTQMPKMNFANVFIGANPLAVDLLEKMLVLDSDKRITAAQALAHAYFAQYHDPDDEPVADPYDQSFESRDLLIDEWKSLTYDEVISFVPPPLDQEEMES
T11 sequence (O95747 whole entry): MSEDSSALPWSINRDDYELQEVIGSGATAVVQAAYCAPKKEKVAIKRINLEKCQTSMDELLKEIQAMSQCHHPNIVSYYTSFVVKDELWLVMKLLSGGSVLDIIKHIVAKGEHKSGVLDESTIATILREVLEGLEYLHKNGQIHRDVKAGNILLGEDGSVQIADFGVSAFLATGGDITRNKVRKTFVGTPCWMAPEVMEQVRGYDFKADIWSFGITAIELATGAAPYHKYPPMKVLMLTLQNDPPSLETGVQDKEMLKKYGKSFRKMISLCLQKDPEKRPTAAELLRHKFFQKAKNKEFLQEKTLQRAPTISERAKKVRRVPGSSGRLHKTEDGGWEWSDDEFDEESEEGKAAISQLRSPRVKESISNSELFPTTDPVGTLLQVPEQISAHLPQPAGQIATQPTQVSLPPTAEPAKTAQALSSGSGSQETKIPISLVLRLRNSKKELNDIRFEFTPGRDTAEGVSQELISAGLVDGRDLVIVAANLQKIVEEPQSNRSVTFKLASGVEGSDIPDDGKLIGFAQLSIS
T5 sequence (Q9HBH9 whole entry): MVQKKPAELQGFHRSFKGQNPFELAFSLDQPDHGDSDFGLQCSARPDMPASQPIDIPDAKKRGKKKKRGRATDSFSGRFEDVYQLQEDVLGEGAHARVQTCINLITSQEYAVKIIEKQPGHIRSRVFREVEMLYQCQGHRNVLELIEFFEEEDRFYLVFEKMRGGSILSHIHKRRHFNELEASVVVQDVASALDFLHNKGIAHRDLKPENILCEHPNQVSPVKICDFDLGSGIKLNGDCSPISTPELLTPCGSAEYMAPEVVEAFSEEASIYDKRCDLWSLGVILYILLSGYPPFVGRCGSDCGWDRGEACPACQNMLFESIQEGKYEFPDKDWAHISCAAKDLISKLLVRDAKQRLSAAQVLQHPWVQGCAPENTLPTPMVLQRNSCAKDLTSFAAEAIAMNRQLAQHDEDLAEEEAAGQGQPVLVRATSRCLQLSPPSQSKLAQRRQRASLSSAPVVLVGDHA
T7 sequence (P28482 whole entry): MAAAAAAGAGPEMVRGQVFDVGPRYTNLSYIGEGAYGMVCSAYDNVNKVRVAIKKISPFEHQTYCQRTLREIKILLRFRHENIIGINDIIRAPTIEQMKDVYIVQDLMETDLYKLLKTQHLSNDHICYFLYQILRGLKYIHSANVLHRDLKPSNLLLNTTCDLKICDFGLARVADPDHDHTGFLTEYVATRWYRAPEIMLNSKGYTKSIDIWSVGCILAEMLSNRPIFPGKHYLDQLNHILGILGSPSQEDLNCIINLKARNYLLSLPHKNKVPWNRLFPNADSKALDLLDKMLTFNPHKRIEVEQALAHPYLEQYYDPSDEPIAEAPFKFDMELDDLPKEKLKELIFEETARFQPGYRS
T9 sequence (Q96GD4 whole entry): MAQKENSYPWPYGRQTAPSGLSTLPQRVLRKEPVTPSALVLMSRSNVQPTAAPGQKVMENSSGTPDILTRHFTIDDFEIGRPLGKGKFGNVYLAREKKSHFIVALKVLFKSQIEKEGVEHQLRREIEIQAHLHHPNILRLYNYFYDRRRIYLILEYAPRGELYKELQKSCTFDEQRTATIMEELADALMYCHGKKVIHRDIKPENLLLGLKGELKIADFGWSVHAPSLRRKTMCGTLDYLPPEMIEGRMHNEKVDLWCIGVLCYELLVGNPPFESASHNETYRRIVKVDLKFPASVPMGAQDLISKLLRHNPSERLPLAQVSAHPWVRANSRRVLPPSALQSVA
T4 sequence (Q16644 whole entry): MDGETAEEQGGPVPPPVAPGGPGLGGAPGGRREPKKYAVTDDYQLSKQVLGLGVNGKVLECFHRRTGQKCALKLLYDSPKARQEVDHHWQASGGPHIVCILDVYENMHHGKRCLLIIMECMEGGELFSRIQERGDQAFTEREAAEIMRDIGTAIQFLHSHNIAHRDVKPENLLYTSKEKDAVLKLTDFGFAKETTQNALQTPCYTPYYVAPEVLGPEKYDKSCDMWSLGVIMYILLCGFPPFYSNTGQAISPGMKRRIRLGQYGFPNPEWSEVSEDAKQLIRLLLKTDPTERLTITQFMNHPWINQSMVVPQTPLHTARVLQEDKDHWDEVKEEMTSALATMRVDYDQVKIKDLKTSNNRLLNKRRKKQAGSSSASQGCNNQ
T3 sequence (P11362 22-822): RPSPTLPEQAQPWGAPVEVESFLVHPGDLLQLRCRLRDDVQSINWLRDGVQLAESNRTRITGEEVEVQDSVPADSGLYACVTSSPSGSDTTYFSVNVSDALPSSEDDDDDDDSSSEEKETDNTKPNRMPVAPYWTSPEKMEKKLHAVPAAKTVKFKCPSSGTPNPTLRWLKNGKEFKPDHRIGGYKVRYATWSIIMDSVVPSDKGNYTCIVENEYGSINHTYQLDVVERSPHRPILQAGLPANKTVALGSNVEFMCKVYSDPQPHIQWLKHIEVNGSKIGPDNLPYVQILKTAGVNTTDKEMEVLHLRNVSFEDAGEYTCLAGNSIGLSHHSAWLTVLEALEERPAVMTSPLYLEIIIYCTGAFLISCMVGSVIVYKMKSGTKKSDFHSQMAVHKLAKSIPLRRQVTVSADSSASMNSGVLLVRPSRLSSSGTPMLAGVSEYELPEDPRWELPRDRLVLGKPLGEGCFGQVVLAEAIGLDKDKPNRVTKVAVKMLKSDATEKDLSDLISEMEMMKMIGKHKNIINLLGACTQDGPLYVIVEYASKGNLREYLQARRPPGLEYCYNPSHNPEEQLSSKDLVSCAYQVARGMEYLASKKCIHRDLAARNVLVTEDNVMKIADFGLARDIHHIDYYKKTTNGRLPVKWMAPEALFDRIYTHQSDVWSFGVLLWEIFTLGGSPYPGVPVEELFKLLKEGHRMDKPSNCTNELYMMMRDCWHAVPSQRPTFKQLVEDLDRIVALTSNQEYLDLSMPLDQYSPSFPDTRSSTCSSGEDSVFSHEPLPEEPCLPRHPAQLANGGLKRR
T6 sequence (P53779 whole entry): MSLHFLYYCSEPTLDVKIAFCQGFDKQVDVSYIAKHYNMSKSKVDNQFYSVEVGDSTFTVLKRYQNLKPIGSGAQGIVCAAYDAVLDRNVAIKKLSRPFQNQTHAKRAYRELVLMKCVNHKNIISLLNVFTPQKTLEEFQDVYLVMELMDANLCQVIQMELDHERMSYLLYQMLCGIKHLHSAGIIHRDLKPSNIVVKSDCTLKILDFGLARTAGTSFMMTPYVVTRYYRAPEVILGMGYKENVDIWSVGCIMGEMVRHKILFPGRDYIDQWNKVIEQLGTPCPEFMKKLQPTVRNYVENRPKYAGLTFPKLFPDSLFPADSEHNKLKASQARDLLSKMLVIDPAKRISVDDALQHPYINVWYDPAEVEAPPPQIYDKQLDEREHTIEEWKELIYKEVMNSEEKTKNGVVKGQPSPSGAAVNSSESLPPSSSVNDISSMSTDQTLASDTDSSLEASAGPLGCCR
T10 sequence (P53350 whole entry): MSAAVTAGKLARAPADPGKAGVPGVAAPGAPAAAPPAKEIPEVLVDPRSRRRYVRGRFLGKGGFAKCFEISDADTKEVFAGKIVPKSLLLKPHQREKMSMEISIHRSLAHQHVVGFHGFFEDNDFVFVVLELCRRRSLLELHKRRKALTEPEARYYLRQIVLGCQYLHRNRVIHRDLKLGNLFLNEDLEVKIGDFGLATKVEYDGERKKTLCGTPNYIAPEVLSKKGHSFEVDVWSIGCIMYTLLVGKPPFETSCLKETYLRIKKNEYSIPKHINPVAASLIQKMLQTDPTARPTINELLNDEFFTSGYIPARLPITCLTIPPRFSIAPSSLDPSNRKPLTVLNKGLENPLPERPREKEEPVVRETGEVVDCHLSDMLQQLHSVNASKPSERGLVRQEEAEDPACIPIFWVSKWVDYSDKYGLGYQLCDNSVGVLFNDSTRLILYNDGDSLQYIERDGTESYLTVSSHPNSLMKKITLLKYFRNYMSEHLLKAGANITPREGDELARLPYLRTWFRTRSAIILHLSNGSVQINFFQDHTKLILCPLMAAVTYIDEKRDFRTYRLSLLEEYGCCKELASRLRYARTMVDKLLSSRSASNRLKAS

| SMILES | remaining activity at 1 µM (CLK2) | remaining activity at 1 µM (p38a MAPK) | remaining activity at 1 µM (FGF-R1) | remaining activity at 1 µM (MAPKAP-K3) | remaining activity at 1 µM (MNK2) | remaining activity at 1 µM (JNK3) | remaining activity at 1 µM (ERK2) | remaining activity at 1 µM (DAPK1) | remaining activity at 1 µM (Aurora B) | remaining activity at 1 µM (PLK1) | remaining activity at 1 µM (OSR1) | remaining activity at 1 µM (PRK2) | remaining activity at 1 µM (DDR2) | remaining activity at 1 µM (IRAK4) | remaining activity at 1 µM (RSK1) | remaining activity at 1 µM (TLK1) | also measured |
| --- | --- | --- | --- | --- | --- | --- | --- | --- | --- | --- | --- | --- | --- | --- | --- | --- | --- |
| COCCOc1ccc(-c2cn(-c3ccccc3)c3nc[nH]c(=O)c23)cc1 [DMX-5804, 5-[4-(2-methoxy-ethoxy)-phenyl]-7-phenyl-3,7-dihydro-pyrrolo[2,3-d]pyrimidin-4-one] | 73% | 96% | 69% | 104% | 111% | 127% | 76% | 133% | 29% | 118% | 128% | 90% | 80% | 97% | 86% | 111% | – |
| Oc1ncnc2c1c(-c1ccccc1)cn2-c1ccccc1 [F1386-0303, 5,7-diphenyl-7H-pyrrolo[2,3-d]pyrimidin-4-ol] | 94% | 78% | 99% | 104% | 109% | 92% | 99% | 104% | 85% | 100% | 102% | 111% | 88% | 103% | 89% | 103% | – |
| Nc1ncc(C(=O)NC2CN(C(=O)C3CC3)C2)c2ccc(-c3cccc(F)c3)nc12 [GNE-495] | – | – | – | – | – | – | – | – | – | – | – | – | – | – | – | – | residual activity (CLK2; 1 μM): 87%; residual activity (p38a MAPK; 1 μM): 95%; residual activity (FGF-R1; 1 μM): 119%; residual activity (MAPKAP-K3; 1 μM): 99%; residual activity (MNK2; 1 μM): 64%; residual activity (JNK3; 1 μM): 73%; residual activity (ERK2; 1 μM): 104%; residual activity (DAPK1; 1 μM): 126%; residual activity (Aurora B; 1 μM): 46%; residual activity (PLK1; 1 μM): 84%; residual activity (OSR1; 1 μM): 109%; residual activity (PRK2; 1 μM): 85%; residual activity (DDR2; 1 μM): 109%; residual activity (IRAK4; 1 μM): 75%; residual activity (RSK1; 1 μM): 65%; residual activity (TLK1; 1 μM): 77% |
| O=C1Nc2ccc(I)cc2/C1=C/c1cc(Br)c(O)c(Br)c1 [GW5074] | 53% | 49% | 89% | 71% | 95% | 65% | 106% | 29% | 29% | 81% | 24% | 68% | 62% | 78% | 32% | 86% | – |
| O=C1Cc2c([nH]c3ccc(Br)cc23)-c2ccccc2N1 [Kenpaullone] | 109% | 94% | 108% | 83% | 125% | 87% | 124% | 82% | 46% | 99% | 52% | 57% | 88% | 65% | 84% | 95% | – |

— paper PMC6458995, “MAP4K4 Inhibition Promotes Survival of Human Stem Cell-Derived Cardiomyocytes and Reduces Infarct Size In Vivo” (Cell Stem Cell, 2019)
